Patent US12569875B2, “Film formation method” (FLOSFIA INC., priority 2023, dated 2026)

How the values were obtained:
[1] = Preparation of an aqueous iridium complex solution (water solubility); format: physicochemical; settings: aqueous solution at iridium concentration 0.01 mol/L could not be prepared
[2] = Thermogravimetric-differential thermal analysis (TG-DTA) of iridium complexes; format: physicochemical
Excerpt: The iridium complexes used in Examples and Comparative Examples described above were subjected to a thermogravimetric-differential thermal analysis (TG-DTA) under an oxygen atmosphere and a nitrogen atmosphere respectively, to examine decomposition properties of the complexes. […] As the iridium complex, the iridium complex represented be the above formula (3) and the iridium complex represented by the above formula (5) were used for Examples and Comparative Examples respectively.

solubility in water [1]: insoluble in water | mass loss at 400 to 600° C. ([2]; TG-DTA, 400 to 600° C., FIG. 3): little mass loss | mass loss ratio ([2]; at 400° C., temperature increase rate 20° C./min, FIG. 2 / FIG. 3): about 70%
Substance: iridium acetylacetonato [formula (5)]
